± gives the expanded uncertainty stated by the source.

Assay in the first data set: not given
Conditions: 298.15 K; 101.33 kPa; Liquid.
With `CC#N` [acetonitrile], the mass density was found to be 776.62 ± 0.52 kg/m3.
The same measure, in the same setting: the figure for `CCCC(=O)OC` [methyl butanoate] is 892.16 ± 0.37 kg/m3.
The same measure, in the same setting: the value for `CCCCC(=O)OC` [methyl pentanoate] was 884.8 ± 0.38 kg/m3.
The same measure, in the same setting: the figure for `CCCCCC(=O)OC` [methyl hexanoate] is 879.47 ± 0.39 kg/m3.

A further data set can be described thus: refractive index (Na D-line) (dimensionless). As to conditions: 298.15 K; 101.33 kPa; Liquid; Standard Abbe refractometry.
For the compound `CC#N` [acetonitrile], the refractive index came out at 1.3418 ± 0.0004.
The same measure, in the same setting: the figure for `CCCC(=O)OC` [methyl butanoate] is 1.3847 ± 0.0004; for `CCCCC(=O)OC` [methyl pentanoate] it is 1.3971 ± 0.0004.
Still for that read-out and setting: the value for `CCCCCC(=O)OC` [methyl hexanoate] was 1.4048 ± 0.0004.

A word on the mass density: it is the mass of a sample divided by its volume. In general, refractive index refers to a measure of how strongly the sample bends light.

These data come from the NIST ThermoML archive (doi:10.1021/je060001s).
